Data reported in article PMC4207771, “Identification and Characterization of Novel Renal Sensory Receptors” (PLoS ONE, 2014).

What was measured:
Olfr31 = biological target: T1, Olfr31 (Mus musculus, UniProt Q3KPA7); test: dual-luciferase (cAMP/CREB reporter) ligand screen, Olfr31 in HEK293T cells; assay type: cell-based; conditions: chemicals tested individually, screened at 500uM (* also at 100uM)
T1 construct: expressed in transfected cells; host or cells: HEK293T, co-transfected with RTP1S
T1 sequence (Q3KPA7 1-317): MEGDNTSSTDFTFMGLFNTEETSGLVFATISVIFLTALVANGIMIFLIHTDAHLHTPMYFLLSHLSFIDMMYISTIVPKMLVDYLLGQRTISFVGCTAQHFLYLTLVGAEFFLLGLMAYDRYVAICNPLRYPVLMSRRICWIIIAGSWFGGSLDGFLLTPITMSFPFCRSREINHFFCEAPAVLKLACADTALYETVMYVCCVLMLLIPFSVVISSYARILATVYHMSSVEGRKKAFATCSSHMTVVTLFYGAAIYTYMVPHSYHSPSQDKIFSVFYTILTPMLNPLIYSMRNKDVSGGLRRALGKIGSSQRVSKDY

Olfr545 = test: dual-luciferase (cAMP/CREB reporter) ligand screen, Olfr545 in HEK293T cells; assay type: cell-based, mouse; parameters: key to Olfr545 response in dual-luciferase assay: ‘+’ or ‘–‘ in each column indicates if the olfactory receptor responded or had no effect to that specific chemical; -: ‘+’ or ‘–‘ in each column indicates if the olfactory receptor responded or had no effect to that specific chemical; conditions: chemicals tested individually, screened at 500uM (* also at 100uM)
Olfr99 = test: dual-luciferase (cAMP/CREB reporter) ligand screen, Olfr99 in HEK293T cells; assay type: cell-based, mouse; parameters: key: ‘+’ or ‘–‘ in each column indicates if the olfactory receptor responded or had no effect to that specific chemical; -: ‘+’ or ‘–‘ in each column indicates if the olfactory receptor responded or had no effect to that specific chemical; conditions: chemicals tested individually, screened at 500uM (* also at 100uM)
Olfr693 = test: dual-luciferase (cAMP/CREB reporter) ligand screen, Olfr693 in HEK293T cells; assay type: cell-based, mouse; parameters: key: ‘+’ or ‘–‘ in each column indicates if the olfactory receptor responded or had no effect to that specific chemical; -: ‘+’ or ‘–‘ in each column indicates if the olfactory receptor responded or had no effect to that specific chemical; conditions: chemicals tested individually, screened at 500uM (* also at 100uM)
Olfr691 = biological target: T2, Olfr691 (Mus musculus, UniProt Q8VGW5); test: dual-luciferase (cAMP/CREB reporter) ligand screen, Olfr691 in HEK293T cells; assay type: cell-based; conditions: for Olfr691 response in dual-luciferase assay: chemicals tested individually, screened at 500uM (* also at 100uM)
T2 construct: Lucy (N); expressed in transfected cells; host or cells: HEK293T, co-transfected with RTP1S
T2 sequence (Q8VGW5 1-322): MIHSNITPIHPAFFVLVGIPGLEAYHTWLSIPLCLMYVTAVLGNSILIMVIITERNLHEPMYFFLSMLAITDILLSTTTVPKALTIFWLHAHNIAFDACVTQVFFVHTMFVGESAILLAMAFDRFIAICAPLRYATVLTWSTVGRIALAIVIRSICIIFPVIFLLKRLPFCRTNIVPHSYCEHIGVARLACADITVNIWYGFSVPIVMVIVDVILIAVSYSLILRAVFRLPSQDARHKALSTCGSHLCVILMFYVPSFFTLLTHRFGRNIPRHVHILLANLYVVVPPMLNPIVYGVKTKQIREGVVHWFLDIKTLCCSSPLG

| Structure (SMILES) | Olfr31 response in dual-luciferase assay (Olfr31) | Olfr545 response in dual-luciferase assay (Olfr545) | Olfr99 response in dual-luciferase assay (Olfr99) | Olfr693 response in dual-luciferase assay (Olfr693) | Olfr691 response in dual-luciferase assay (Olfr691) | Relative response (% of 4-pentenoate response) at 500 µM (Olfr691; HEK-293T, 4 h, 0.5 mM ligand, normalized to the response of Olfr691 to the strongest ligand, 4-pentenoate) [%] | Olfr691 response (in words) (Olfr691) |
| --- | --- | --- | --- | --- | --- | --- | --- |
| C=CC(C)(O)CCC=C(C)CCC=C(C)C (mixture of isomers) [nerolidol] | - | - | - | - | - |  |  |
| C=C(C)C1CC=C(C)CC1 (single isomer, unassigned; (+)) [(+)-Limonene] | - | - | - | - | - |  |  |
| Fc1ccc(F)c(F)c1 [1,2,4 trifluorobenzene] | - | - | - | - | - |  |  |
| SCCS [1,2-ethanedithiol] | - | - | - | - | - |  |  |
| COc1cccc(OC)c1 [1,3-Dimethoxybenzene] | - | - | - | - | - |  |  |
| SCCCCS [1,4-butanedithiol] | - | - | - | - | - |  |  |
| O=C1CCC(=O)CC1 [1,4-cyclohexanedione] | - | - | - | - | - |  |  |
| SCCCCCCS [1,6-hexanedithiol] | - | - | - | - | - |  |  |
| CCCCCCCO [1-Heptanol] | - | - | - | - | - |  |  |
| C=CC(=O)CCCCC [1-Octen-3-one] | - | - | - | - | - |  |  |
| CCC(C)S (stereo not drawn) [1-methyl-1-propanethiol] | - | - | - | - | - |  |  |
| CCCCCCCCO [1-octanol] | - | - | - | - | - |  |  |
| CC(O)C(C)O (stereo not drawn) [2,3-butanediol] | - | - | - | - | - |  |  |
| CCCC(=O)C(C)=O [2,3-hexadione] | - | - | - | - | - |  |  |
| Cc1ccc(C)s1 [2,5-Dimethylthiophene] | - | - | - | - | - |  |  |
| Cc1cncc(C)n1 [2,6-Dimethylpyrazine] | - | - | - | - | - |  |  |
| CCCCCC(C)O (stereo not drawn) [2-Heptanol] | - | - | - | - | - |  |  |
| CCCC1CCOC(C)S1 (stereo not drawn) [2-Methyl-4-propyl-1,3-oxathiane] | - | - | - | - | - |  |  |
| O=C1Cc2ccccc2O1 [2-cumaranon] | - | - | - | - | - |  |  |
| CCCCC(CC)C(=O)O (stereo not drawn) [2-ethylhexanoate] | - | - | - | - | + | 76 ± 3.6 |  |
| CCCCCC(C)=O [2-heptanone] | - | - | - | - | - |  |  |
| C[C@]12CC[C@@H]3c4ccc(O)cc4CC[C@H]3[C@@H]1CC[C@@H]2O [estradiol, reference compound] |  | - | - | - | - |  |  |
| O=CO [formate] |  |  |  |  |  |  | not including |
| CC(C)CC(=O)O [isovaleric acid] |  | - | - | - |  |  |  |
